IC50 data for 25 compounds are collected here from patent publication US20230031406A1, “COMPOUNDS AND COMPOSITIONS FOR TREATING CONDITIONS ASSOCIATED WITH NLRP ACTIVITY” (Novartis AG, priority 2018, published 2023).

In general, IC50 refers to the midpoint of a concentration-inhibition curve.

Read-outs that look alike come from different tables or passages of the source.

The subject of this test is PMA-differentiated THP-1 cells. The experiment in a line: IL-1β production in PMA-differentiated THP-1 cells stimulated with gramicidin (hTHP-1 assay containing 2% fetal bovine serum; Procedures 1 and 2). Format: cell-based, human. The note with it: 2% fetal bovine serum. In short, it runs like this:
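THP-1 cells were differentiated with PMA (20 ng/ml, 16-18 h), detached, and plated at 50,000 cells/well in RPMI 1640 with 2% FBS. They were pre-treated with compound (0.0017–100 μM, 0.37% DMSO) for 1 h, then stimulated with gramicidin (5 μM) for 2 h. Supernatant IL-1β was measured by HTRF.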

The mark [1] stands for this setting: Homo sapiens, THP-1, Table B3, hTHP-1 assay, class symbols, read-out: IC50.
Setting [2] is: Table B1, class symbols, read-out: Average IC50 of compounds in hTHP-1 assay: hTHP-1 IC50.
The mark [3] stands for this setting: Homo sapiens, THP-1, Table B1, class symbols, read-out: Average IC50 of compounds in hTHP-1 assay: hTHP-1 IC50.
Setting [4] is: Table B2, class symbols, read-out: hTHP-1 IC50.
[5] abbreviates: Homo sapiens, THP-1, Table B2, numeric bounds, read-out: hTHP-1 IC50.
Where [6] appears, read: Homo sapiens, THP-1, Table B2, class symbols, read-out: hTHP-1 IC50.
Setting [7] is: Table B3, hTHP-1 assay, class symbols, read-out: IC50.

`CC1(C)CCc2c1nc1c(c2NC(=O)N=[S@](N)(=O)c2cc([C@](C)(O)CO)cs2)CCC1` [Example 652, (S)-4-((S)-1,2-dihydroxypropan-2-yl)-N′-((3,3-dimethyl-1,2,3,5,6,7-hexahydrodicyclopenta[b,e]pyridin-8-yl)carbamoyl) thiophene-2-sulfonimidamide]: the half-maximal inhibitory concentration (IC50) under setting [1] is 5 to 30 µM.
As for `CC1CCc2c1nc1c(c2NC(=O)N=S(N)(=O)c2cnc(C(C)(C)O)s2)CCC1` (single isomer, unassigned) [Compound 162ab, (S,R) or (S,S)-2-(2-hydroxypropan-2-yl)-N′-((3-methyl-1,2,3,5,6,7-hexahydrodicyclo-penta[b,e]pyridin-8-yl)carbamoyl)thiazole-5-sulfonimidamide], the IC50 under setting [2] was 1 to 5 µM.
Consider `CC(C)(O)c1ncc(S(N)(=O)=NC(=O)Nc2c3c([n+]([O-])c4c2CCC4)CCC3)s1` (stereo not shown) [Compound 146, 8-(3-(amino(2-(2-hydroxypropan-2-yl)thiazol-5-yl)(oxo)-λ6-sulfaneylidene)ureido)-1,2,3,5,6,7-hexahydrodicyclopenta[b,e]pyridine 4-oxide], for which the IC50 under setting [3] lay within 5 to 30 µM.
In the case of `CC(C)c1ncc(F)c(C(C)C)c1NC(=O)N=S(N)(=O)c1sc(C(C)(C)O)cc1F` (single isomer, unassigned) [Compound 106b, (S) or (R)-3-fluoro-N′-((5-fluoro-2,4-diisopropylpyridin-3-yl)carbamoyl)-5-(2-hy-droxypropan-2-yl)thiophene-2-sulfonimidamide], the half-inhibitory concentration (IC50) under setting [2] is 1 to 5 µM.
With `CC(C)(O)c1nc(S(N)(=O)=NC(=O)Nc2c3c(nc4c2CCC4)CCC3)cs1` (single isomer, unassigned) [Compound 154a, (R) or (S)-N′-((1,2,3,5,6,7-hexahydrodicyclo-penta[b,e]pyridin-8-yl)carbamoyl)-2-(2-hydroxypropan-2-yl)thiazole-4-sulfonimidamide], the IC50 under setting [3] lay in the range of 1 to 5 µM.
Regarding `CCn1cc(F)c(S(N)(=O)=NC(=O)Nc2c3c(nc4c2CCC4(C)C)CCC3)n1` (stereo not shown) [Example 638, N′-((3,3-dimethyl-1,2,3,5,6,7-hexahydrodicyclopenta[b,e]pyridin-8-yl)carbamoyl)-1-ethyl-4-fluoro-1H-pyrazole-3-sulfonimidamide], the IC50 under setting [1] lay within 0.008 to 0.04 µM.
As to `Cc1c(-c2ccccc2)nc2c(c1NC(=O)N=S(N)(=O)c1cnc(C(C)(C)O)s1)CCC2` (single isomer, unassigned) [Compound 143a, (S) or (R)-2-(2-hydroxy-propan-2-yl)-N′-((3-methyl-2-phenyl-6,7-dihydro-5H-cyclopenta[b]pyridin-4-yl)carbamoyl)thiazole-5-sulfonimidamide], for the setting “Homo sapiens, THP-1, Table B1, numeric bounds, read-out: Average IC50 of compounds in hTHP-1 assay: hTHP-1 IC50”, the IC50 is over 30 µM.
With `CC1(C)CCc2c1nc1c(c2NC(=O)N=S(N)(=O)c2cnc(C(C)(O)CO)s2)CCC1` (single isomer, unassigned) [Compound 201d, (R, S) or (S, S) or (S, R) or (R, R)-2-(1.2-Dihydroxypropan-2-yl)-N′-((3,3-dimethyl-1,2,3,5,6.7-hexahydrodicyclopenta [b,e]pvridin-8-yl)carbamoyl)thiazole-5-sulfonimidamide], the IC50 under setting [4] is 5 to 30 µM.
Take `COCc1nc(C(C)(C)O)sc1S(N)(=O)=NC(=O)Nc1c2c(nc3c1CCC3(C)C)CCC2` (single isomer, unassigned) [Compound 170a]: the IC50 under setting [4] fell in the range of 0.2 to 1 µM.
Consider `CN(C)Cc1nc(C(C)(C)O)sc1[S@](N)(=O)=NC(=O)Nc1c2c(nc3c1CCC3(C)C)CCC2` [Compound 709], for which, under setting [5], the IC50 is over 30 µM.
The same measure, in the same setting: for `Cc1c(C(C)(C)C)nc2c(c1NC(=O)N=S(N)(=O)c1cc(C(C)(C)O)cs1)CCC2` (single isomer, unassigned) [Compound 657a, (S) or (R)-N′-((2-(tert-butyl)-3-methyl-6,7-dihydro-5H-cyclopenta[b]pyridin-4-yl)carbamoyl)-4-(2-hydroxypropan-2-yl)thiophene-2-sulfonimidamide] the value was over 30 µM.
For the compound `CC(C)(O)c1ccnc(S(N)(=O)=NC(=O)Nc2c3c(nc4c2CCC4(C)C)CCC3)c1` (single isomer, unassigned) [Compound 620b, (R) or (S)-N′-((3,3-dimethyl-1,2,3,5,6,7-hexahydrodicyclopenta [b,e]pyridin-8-yl)carbamoyl)-4-(2-hydroxypropan-2-yl)pyridine-2-sulfonimidamide], the IC50 under setting [6] is 1 to 5 µM.
Consider `NS(=O)(=NC(=O)Nc1c2c(nc3c1CCC31CC1)CCC2)c1nn(C(F)F)cc1F` (single isomer, unassigned) [Example 682, (S) or (R)-1-(difluoromethyl)-4-fluoro-N′-((1′,5′,6′,7′-tetrahydro-2′H-spiro[cyclopropane-1,3′-dicyclopenta[b,e]pyridin]-8′-yl)carbamoyl)-1H-pyrazole-3-sulfonimidamide], for which, under setting [7], the IC50 lay within 1 to 5 µM.
As to `Cc1c(C2CCC2)nc2c(c1NC(=O)N=S(N)(=O)c1cc(C(C)(C)O)cs1)CCC2` (single isomer, unassigned) [Compound 658a, (S) or (R)-N′-((2-cyclobutyl-3-methyl-6,7-dihydro-5H-cyclopenta[b]pyridin-4-yl)carbamoyl)-4-(2-hydroxypropan-2-yl)thiophene-2-sulfonimidamide], the IC50 under setting [5] is over 30 µM.
Consider `N[S@@](=O)(=NC(=O)Nc1c2c(nc(C3CC3)c1C1CC1)CCC2)c1ccn(C(F)F)n1` [Compound 728b], for which the IC50 under setting [6] is 0.2 to 1 µM.
For the compound `Cc1nc2c(c(NC(=O)N=S(N)(=O)c3nn(C(F)F)cc3F)c1-c1ccccc1)CCC2` (single isomer, unassigned) [Example 728, (S) or (R)-1-(difluoromethyl)-4-fluoro-N′-((2-methyl-3-phenyl-6,7-dihydro-5H-cyclopenta[b]pyridin-4-yl)carbamoyl)-1H-pyrazole-3-sulfonimidamide], the IC50 under setting [7] fell in the range of 1 to 5 µM.
As for `Cc1c(CC(F)(F)F)nc2c(c1NC(=O)N=S(N)(=O)c1nn(C(F)F)cc1F)CCC2` (stereo not shown) [Example 617, 1-(Difluoromethyl)-4-fluoro-N′-((3-methyl-2-(2,2,2-trifluoroethyl)-6,7-dihydro-5H-cyclopenta[b]pyridin-4-yl)carbamoyl)-1H-pyrazole-3-sulfonimidamide], the IC50 under setting [1] is 5 to 30 µM.
Same read-out and setting: for `C[C@](O)(CO)c1cc(F)c([S@](N)(=O)=NC(=O)Nc2c3c(nc4c2CCC42CC2)CCC3)s1` [Example 678, (R)-5-((S)-1,2-dihydroxypropan-2-yl)-3-fluoro-N′-((1′,5′,6′,7′-tetrahydro-2′H-spiro[cyclopropane-1,3′-dicyclopenta[b,e]pyridin]-8′-yl)carbamoyl)thiophene-2-sulfonimidamide] the value was 0.008 to 0.04 µM.
For `Cc1sc(S(N)(=O)=NC(=O)Nc2c3c(nc4c2CCC4C)CCC3)nc1C(C)(C)O` (single isomer, unassigned) [Compound 104b, (S,R/S) or (R,R/S)-4-(2-hydroxypropan-2-yl)-5-methyl-N′-((3-methyl-1,2,3,5,6,7-hexahydrodicyclo-penta[b,e]pyridin-8-yl)carbamoyl)thiazole-2-sulfonimidamide], under setting [2], the IC50 was in the range of 5 to 30 µM.
For the compound `CC1CCc2c1nc1c(c2NC(=O)N=S(N)(=O)c2ncc(C(C)(C)O)s2)CCC1` (single isomer, unassigned) [Compound 140a, (R,R/S) or (S,R/S)-5-(2-hydroxypropan-2-yl)-N′-((3-methyl-1,2,3,5,6,7-hexa-hydrodicyclo-penta[b,e]pyridin-8-yl)carbamoyl)thiazole-2-sulfonimidamide], the half-maximal inhibitory concentration (IC50) under setting [2] is 0.04 to 0.2 µM.
Regarding `Cc1c(C(F)F)nc2c(c1NC(=O)N=S(N)(=O)c1cnc(C(C)(C)O)s1)CCC2` (single isomer, unassigned) [Compound 647a, (R) or (S)-N′-((2-(difluoromethyl)-3-methyl-6,7-dihydro-5H-cyclopenta[b]pyridin-4-yl)carbamoyl)-2-(2-hydroxypropan-2-yl)thiazole-5-sulfonimidamide], the IC50 under setting [6] fell in the range of 1 to 5 µM.
Consider `CCc1c(C)nc2c(c1NC(=O)N=S(N)(=O)c1cnc(C(C)(C)O)s1)CCC2` (stereo not shown) [Compound 117, N′-((3-ethyl-2-methyl-6,7-dihydro-5H-cyclopenta[b]pyridin-4-yl)carbamoyl)-2-(2-hydroxypropan-2-yl)thiazole-5-sulfonimidamide], for which, under setting [3], the IC50 was 5 to 30 µM.
As to `CCc1cc(NC(=O)N=S(N)(=O)c2cnc(C(C)(C)O)s2)c2c(n1)CCC2` (single isomer, unassigned) [Compound 137a, (R) or (S)-N′-((2-ethyl-6,7-dihydro-5H-cyclopenta[b]pyridin-4-yl)carbamoyl)-2-(2-hydroxypropan-2-yl)thiazole-5-sulfonimidamide], the IC50 (Table B1, numeric bounds, read-out: Average IC50 of compounds in hTHP-1 assay: hTHP-1 IC50) is over 10 µM.
Regarding `CC1CCc2c1nc1c(c2NC(=O)N=S(N)(=O)c2cnn(C(C)C)c2)CCC1` (single isomer, unassigned) [Compound 171c, (R, R) and (R, S) or (S, R) and (S, S)-1-Isopropyl-N′-((3-methyl-1,2,3,5,6,7-hexahydrodicyclopenta [b,e]pyridin-8-yl)carbamoyl)-1H-pyrazole-4-sulfonimidamide], the IC50 under setting [4] is 1 to 5 µM.
Regarding `CC(C)(O)c1cc(F)c(S(N)(=O)=NC(=O)Nc2c3c(nc(C(F)(F)F)c2C2CC2)CCC3)s1` (single isomer, unassigned) [Example 660, (S) or (R)-N′-((3-cyclopropyl-2-(trifluoromethyl)-6,7-dihydro-5H-cyclopenta[b]pyridin-4-yl)carbamoyl)-3-fluoro-5-(2-hydroxypropan-2-yl) thiophene-2-sulfonimidamide], under setting [7], the IC50 is 5 to 30 µM.
